Several values for one entry are separate records, joined by “and”; a condition that tells them apart may be missing. Equal entries are not always repeated. Toxic doses and inconclusive results are not listed. Peptide text beside a SMILES is read from it.
Tested on: P388 leukemia ip, CD2F1 mice, survival T/C
Test: NCI In Vivo Anticancer Drug Screen. Data for tumor model P388 Leukemia (intraperitoneal) in CD2F1 (CDF1) mice
Details: endpoint: median survival time, higher = longer survival
Summary of the method: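 Mice carrying the transplanted tumor received test compound or vehicle. Survival was recorded in each group, and the value is the treated-group measurement divided by that of the vehicle-treated control group.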

[1] = dose: 25.0 mg/kg/injection, schedule: Q01DX009 (ip), vehicle: Klucel (hydroxypropylcellulose) (HPC)
[2] = dose: 50.0 mg/kg/injection, schedule: Q01DX009 (ip), vehicle: Klucel (hydroxypropylcellulose) (HPC)
[3] = dose: 50.0 mg/kg/injection, schedule: Q01DX005 (ip), vehicle: saline with Tween-80
[4] = dose: 100.0 mg/kg/injection, schedule: Q01DX005 (ip), vehicle: saline with Tween-80
[5] = dose: 200.0 mg/kg/injection, schedule: Q01DX005 (ip), vehicle: saline with Tween-80
[6] = dose: 50.0 mg/kg/injection, schedule: Q01DX005 (ip), vehicle: saline
[7] = dose: 100.0 mg/kg/injection, schedule: Q01DX005 (ip), vehicle: saline
[8] = dose: 200.0 mg/kg/injection, schedule: Q01DX005 (ip), vehicle: saline
[9] = dose: 50.0 mg/kg/injection, schedule: Q01DX005 (ip), vehicle: Klucel (hydroxypropylcellulose) (HPC)
[10] = dose: 100.0 mg/kg/injection, schedule: Q01DX005 (ip), vehicle: Klucel (hydroxypropylcellulose) (HPC)
[11] = dose: 200.0 mg/kg/injection, schedule: Q01DX005 (ip), vehicle: Klucel (hydroxypropylcellulose) (HPC)
[12] = dose: 12.5 mg/kg/injection, schedule: Q01DX005 (ip), vehicle: saline with Tween-80
[13] = dose: 25.0 mg/kg/injection, schedule: Q01DX005 (ip), vehicle: saline with Tween-80
[14] = dose: 60.0 mg/kg/injection, schedule: Q01DX005 (ip), vehicle: saline with Tween-80
[15] = dose: 120.0 mg/kg/injection, schedule: Q01DX005 (ip), vehicle: saline with Tween-80
[16] = dose: 100.0 mg/kg/injection, schedule: Q01DX009 (ip), vehicle: Klucel (hydroxypropylcellulose) (HPC)
[17] = dose: 60.0 mg/kg/injection, schedule: Q01DX005 (ip), vehicle: saline
[18] = dose: 120.0 mg/kg/injection, schedule: Q01DX005 (ip), vehicle: saline
[19] = dose: 50.0 mg/kg/injection, schedule: Q01DX009 (ip), vehicle: saline with Tween-80
[20] = dose: 100.0 mg/kg/injection, schedule: Q01DX001 (ip), vehicle: saline with Tween-80
[21] = dose: 400.0 mg/kg/injection, schedule: Q01DX001 (ip), vehicle: saline with Tween-80

For `O=C1N=c2ccc(Br)cc2=C1c1sc(=O)n(Cc2nc3ccccc3[nH]2)c1O`, the T/C (dose: 100.0 mg/kg/injection, schedule: Q01DX001 (ip), vehicle: Klucel (hydroxypropylcellulose) (HPC)) was 95 % of control, the T/C (dose: 200.0 mg/kg/injection, schedule: Q01DX001 (ip), vehicle: Klucel (hydroxypropylcellulose) (HPC)) was 93 % of control and the T/C (dose: 400.0 mg/kg/injection, schedule: Q01DX001 (ip), vehicle: Klucel (hydroxypropylcellulose) (HPC)) was 90 % of control.

For `COc1ccc(C(=O)/C=C/c2ccc3cc(OC)c(OC)cc3c2)cc1OC`, the T/C (dose: 3.13 mg/kg/injection, schedule: Q01DX009 (ip), vehicle: Klucel (hydroxypropylcellulose) (HPC)) was 103 % of control, the T/C (dose: 6.25 mg/kg/injection, schedule: Q01DX009 (ip), vehicle: Klucel (hydroxypropylcellulose) (HPC)) was 100 % of control and the T/C (dose: 12.5 mg/kg/injection, schedule: Q01DX009 (ip), vehicle: Klucel (hydroxypropylcellulose) (HPC)) was 106 % of control. The T/C [1] was 106 % of control and the T/C [2] was 98 % of control.

In the case of `C=CC1CC(NC(=O)OCCCC)C(=O)O1` (stereo not given), the T/C [3] is reported as 99 % of control, the T/C [4] is reported as 101 % of control and the T/C [5] is reported as 102 % of control.

In the case of `NC(CC(=O)O)C(=O)NC(CC(=O)O)C(=O)O` (stereo not drawn) (H-Asp-Asp-OH; configuration not given here), the T/C [6] is reported as 101 % of control, the T/C [7] is reported as 99 % of control and the T/C [8] is reported as 97 % of control.

With `O=c1oc2c(cc1-c1ccccc1)CCCC2` the T/C [9] was 102 % of control, the T/C [10] was 104 % of control and the T/C [11] was 103 % of control.

For `N#[N+]c1ccc2c(S(=O)(=O)Oc3ccc(C(=O)c4ccccc4)c(OS(=O)(=O)c4cccc5c([O-])c([N+]#N)ccc45)c3)cccc2c1[O-]`, the T/C [12] was 110 % of control, the T/C [13] was 107 % of control and the T/C [3] was 105 % of control and 107 % of control.

In the case of `COC(=O)[C@H](C)C1OC(O)C=CC1=O` (stereo not given in full), the T/C (dose: 6.25 mg/kg/injection, schedule: Q01DX001 (ip), vehicle: saline + Tween-80 + alcohol) is reported as 100 % of control, the T/C (dose: 12.5 mg/kg/injection, schedule: Q01DX001 (ip), vehicle: saline + Tween-80 + alcohol) is reported as 108 % of control and the T/C (dose: 25.0 mg/kg/injection, schedule: Q01DX001 (ip), vehicle: saline + Tween-80 + alcohol) is reported as 101 % of control. The T/C (dose: 50.0 mg/kg/injection, schedule: Q01DX001 (ip), vehicle: saline + Tween-80 + alcohol) was 101 % of control.

With `O=C(O)C(S)Cc1cnc[nH]1` (stereo not given) the T/C (dose: 100.0 mg/kg/injection, schedule: Q04DX002 (ip), vehicle: saline) was 99 % of control and the T/C (dose: 200.0 mg/kg/injection, schedule: Q04DX002 (ip), vehicle: saline) was 99 % of control.

With `CCSC(CCC(NC(C)=O)C(=O)O)SCC` (stereo not given) the T/C [9] was 98 % of control, the T/C [10] was 99 % of control and the T/C [11] was 91 % of control.

For `CC12OC1C(=O)C=CC2=O` (stereo not given), the T/C (dose: 5.0 mg/kg/injection, schedule: Q04DX002 (ip), vehicle: saline with Tween-80) was 111 % of control.

In the case of `CCOC(CN1Cc2cc(OC)c(OC)cc2CC1c1ccc(OC)c(OC)c1)OCC` (stereo not given), the T/C [14] is reported as 95 % of control and the T/C [15] is reported as 92 % of control.

In the case of `CC(=O)Nc1nc(CCl)cs1`, the T/C [1] is reported as 100 % of control, the T/C [2] is reported as 102 % of control and the T/C [16] is reported as 103 % of control. The T/C (dose: 200.0 mg/kg/injection, schedule: Q01DX009 (ip), vehicle: Klucel (hydroxypropylcellulose) (HPC)) was 110 % of control.

In the case of `O=C(O)c1ccc2c3c(ccc(C(=O)O)c13)CC2`, the T/C [1] is reported as 105 % of control, the T/C [2] is reported as 102 % of control and the T/C [16] is reported as 99 % of control.

With `COc1cc2c(c(Cl)c1OC)CCN(C)CC2c1ccccc1` (stereo not given) the T/C [17] was 102 % of control and the T/C [18] was 98 % of control.

With `CC(C)(C=O)COC1OCN(C(C)(C)C)CC1(C)C` (stereo not given) the T/C [19] was 104 % of control and the T/C (dose: 100.0 mg/kg/injection, schedule: Q01DX009 (ip), vehicle: saline with Tween-80) was 122 % of control.

For `O=C(Cc1ccccc1)c1c[nH]c2c(O)ccc(O)c12`, the T/C (dose: 50.0 mg/kg/injection, schedule: Q04DX002 (ip), vehicle: Klucel (hydroxypropylcellulose) (HPC)) was 104 % of control, the T/C (dose: 100.0 mg/kg/injection, schedule: Q04DX002 (ip), vehicle: Klucel (hydroxypropylcellulose) (HPC)) was 108 % of control and the T/C (dose: 200.0 mg/kg/injection, schedule: Q04DX002 (ip), vehicle: Klucel (hydroxypropylcellulose) (HPC)) was 111 % of control.

In the case of `C=CC(=NC(C)(C)C)Nc1ccccc1C(=O)OC`, the T/C (dose: 12.5 mg/kg/injection, schedule: Q01DX009 (ip), vehicle: saline) is reported as 108 % of control, the T/C (dose: 25.0 mg/kg/injection, schedule: Q01DX009 (ip), vehicle: saline) is reported as 107 % of control and the T/C [19] is reported as 101 % of control. For the same compound, the T/C (dose: 50.0 mg/kg/injection, schedule: Q01DX009 (ip), vehicle: saline) was 108 % of control.

For `Cc1ccccc1N`, the T/C (dose: 50.0 mg/kg/injection, schedule: Q01DX009 (ip), vehicle: saline sonified) was 100 % of control, the T/C (dose: 100.0 mg/kg/injection, schedule: Q01DX009 (ip), vehicle: saline sonified) was 100 % of control and the T/C (dose: 200.0 mg/kg/injection, schedule: Q01DX009 (ip), vehicle: saline sonified) was 104 % of control.

`O=C(NC(O)C(=O)O)c1ccc(Cl)cc1` (stereo not given) was tested, and the T/C [14] was 97 % of control, the T/C [15] was 95 % of control and the T/C (dose: 240.0 mg/kg/injection, schedule: Q01DX005 (ip), vehicle: saline with Tween-80) was 97 % of control.

With `CCOC(=O)Nc1nncs1` the T/C (dose: 12.5 mg/kg/injection, schedule: Q01DX009 (ip), vehicle: distilled water + Tween-80) was 103 % of control, the T/C (dose: 25.0 mg/kg/injection, schedule: Q01DX009 (ip), vehicle: distilled water + Tween-80) was 105 % of control and 108 % of control and the T/C (dose: 50.0 mg/kg/injection, schedule: Q01DX009 (ip), vehicle: distilled water + Tween-80) was 108 % of control. For the same compound, the T/C (dose: 100.0 mg/kg/injection, schedule: Q01DX009 (ip), vehicle: distilled water + Tween-80) was 100 % of control, the T/C (dose: 200.0 mg/kg/injection, schedule: Q01DX009 (ip), vehicle: distilled water + Tween-80) was 151 % of control and 168 % of control and the T/C (dose: 400.0 mg/kg/injection, schedule: Q01DX009 (ip), vehicle: distilled water + Tween-80) was 108 % of control.

`CC1(COC(=O)C2(C)CO2)CO1` (stereo not given) was tested, and the T/C (dose: 25.0 mg/kg/injection, schedule: Q01DX005 (ip), vehicle: water) was 99 % of control, the T/C [6] was 91 % of control and the T/C (dose: 50.0 mg/kg/injection, schedule: Q01DX005 (ip), vehicle: water) was 101 % of control and 115 % of control. For the same compound, the T/C [7] was 97 % of control, the T/C (dose: 100.0 mg/kg/injection, schedule: Q01DX005 (ip), vehicle: water) was 120 % of control and the T/C [8] was 91 % of control.

For `O=C(NCCN1CCN2Cc3[nH]c4ccccc4c3CC2C1)c1ccc(Cl)cc1` (stereo not given), the T/C [17] was 102 % of control, the T/C [18] was 97 % of control and the T/C (dose: 240.0 mg/kg/injection, schedule: Q01DX005 (ip), vehicle: saline) was 90 % of control.

With `CNC(=O)NS(=O)(=O)c1cnccc1Cl` the T/C [20] was 97 % of control, the T/C (dose: 200.0 mg/kg/injection, schedule: Q01DX001 (ip), vehicle: saline with Tween-80) was 100 % of control and the T/C [21] was 97 % of control.

With `Cc1ccc(S(=O)(=O)OC2C(O)CC(=O)C(OC(=O)c3ccccc3)C2OC(=O)c2ccccc2)cc1` (stereo not given) the T/C (dose: 50.0 mg/kg/injection, schedule: Q01DX001 (ip), vehicle: saline with Tween-80) was 90 % of control, the T/C [20] was 89 % of control and the T/C [21] was 100 % of control.

For `COC(=O)NC1(NC(=O)OC)NC(=O)c2ccccc2N1`, the T/C (dose: 25.0 mg/kg/injection, schedule: Q01DX005 (ip), vehicle: DMSO) was 98 % of control and the T/C (dose: 50.0 mg/kg/injection, schedule: Q01DX005 (ip), vehicle: DMSO) was 100 % of control.

With `O=C(O)COc1cc(Cl)c(Cl)cc1Cl` the T/C (dose: 6.25 mg/kg/injection, schedule: Q01DX005 (ip), vehicle: saline with Tween-80) was 98 % of control, the T/C [12] was 100 % of control and the T/C [13] was 98 % of control. The T/C [3] was 98 % of control, the T/C [4] was 106 % of control and the T/C [5] was 97 % of control.

Reference: PubChem BioAssay AID330 (DTP/NCI, 2004)
